In ChEMBL document CHEMBL4476874, “Compounds for the modulation of myc activity” (2018):

Tests used:
[1] = target: Myc proto-oncogene protein (Homo sapiens, UniProt P01106); assay: Inhibition of human c-Myc assessed as reduction in c-Myc/Max/Ebox DNA complex formation using pre-formed complex of c-Myc and biotinylated DNA containing single Ebox-sequence followed by compound addition and further addition of his6-tagged c-Max and incubated for 2 hrs by AlphaScreen assay
[2] = tested on: NCI-H2171; assay: Antiproliferative activity against human NCI-H2171 cells after 72 hrs by ATPlite assay; type: functional, cell-based; conditions: NCI-H2171, 72 h

Chain of Myc proto-oncogene protein (P01106 whole entry): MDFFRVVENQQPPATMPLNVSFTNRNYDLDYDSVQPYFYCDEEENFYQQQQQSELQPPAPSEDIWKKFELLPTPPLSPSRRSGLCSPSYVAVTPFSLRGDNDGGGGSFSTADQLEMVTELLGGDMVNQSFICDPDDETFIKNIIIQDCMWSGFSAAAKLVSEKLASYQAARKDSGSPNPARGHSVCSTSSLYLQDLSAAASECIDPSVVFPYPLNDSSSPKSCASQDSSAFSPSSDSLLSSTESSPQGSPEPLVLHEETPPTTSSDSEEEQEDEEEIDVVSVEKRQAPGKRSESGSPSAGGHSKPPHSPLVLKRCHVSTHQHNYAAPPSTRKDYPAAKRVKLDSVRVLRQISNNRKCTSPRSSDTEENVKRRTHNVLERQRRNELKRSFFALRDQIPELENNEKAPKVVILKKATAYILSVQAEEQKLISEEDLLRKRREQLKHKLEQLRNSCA

SMILES	IC50 [1] [nM]	IC50 [2] [nM]
CC(C)NCCC(=O)Nc1sc2c(c1-c1nc3cc(SC4CCCC4)ccc3s1)CCNC2	> 10000	< 300
CNS(=O)(=O)c1cccc(-c2ccc3sc(-c4c(NC(=O)CCNCCOC)sc5c4CCNC5)nc3c2)c1	300 to 1000	< 300
Cc1cc(-c2ccc3sc(-c4c(NC(=O)CCNC(C)C)sc5c4CCNC5)nc3c2)cc(C)n1	> 10000	< 300
COCCNCCC(=O)Nc1sc2c(c1-c1nc3cc(-c4ccc(F)nc4)ccc3s1)CCNC2	< 300	300 to 1000
COCCNCCC(=O)Nc1sc2c(c1-c1nc3c(N4CC(O)C4)cccc3s1)CCNC2	< 300	< 300
COCCNCCC(=O)Nc1sc2c(c1-c1nc3cc(-c4ccc(N5CCN(C)CC5)cc4)ccc3s1)CCNC2	300 to 1000	< 300
COc1ccc2sc(-c3c(NC(=O)CCNC(C)C)sc4c3CCNC4)nc2c1Cl	< 300	300 to 1000
COCCNCCC(=O)Nc1sc2c(c1-c1nc3cc(-c4cccnc4C)ccc3s1)CCNC2	1000 to 10000	< 300
COCCNCCC(=O)Nc1sc2c(c1-c1nc3ccc(-c4cnc(N)nc4)cc3s1)CCNC2	300 to 1000	< 300
COCCNCCC(=O)Nc1sc2c(c1-c1nc3ccc(-c4ccnc(N)c4)cc3s1)CCNC2	300 to 1000	< 300
COCCNCCC(=O)Nc1sc2c(c1-c1nc3cc(-c4cnccc4C)ccc3s1)CCNC2	1000 to 10000	< 300
COCCNCCC(=O)Nc1sc2c(c1-c1nc3ccc(-c4cncc(C(F)(F)F)c4)cc3s1)CCNC2	> 10000	< 300
CC(=O)Nc1sc2c(c1-c1nc3ccc(-c4ccncc4)cc3s1)CCNC2	–	300 to 1000
COCCNCCC(=O)Nc1sc2c(c1-c1nc3ccc(-c4ccnc(C)c4)cc3s1)CCNC2	300 to 1000	< 300
CNCCC(=O)Nc1sc2c(c1-c1nc3ccccc3s1)CCN(C(C)C)C2	< 300	< 300
CC(=O)Nc1sc2c(c1-c1nc3cc(-c4ccncc4)ccc3s1)CCNC2	300 to 1000	< 300
CNC(=O)Nc1ccc(-c2ccc3nc(-c4c(NC(=O)CCNCCOC)sc5c4CCNC5)sc3c2)cc1	1000 to 10000	< 300
COCCNCCC(=O)Nc1sc2c(c1-c1nc3cc(-c4cccc(S(N)(=O)=O)c4)ccc3s1)CCNC2	300 to 1000	300 to 1000
CC(C)N1CCc2c(sc(NC(=O)CCNCCc3cccnc3)c2-c2nc3ccccc3s2)C1	300 to 1000	300 to 1000
COCCNCCC(=O)Nc1sc2c(c1-c1nc3c(Nc4ccccc4)cccc3s1)CCNC2	> 10000	300 to 1000
CC(C)NCCC(=O)Nc1sc2c(c1-c1nc3cc(-c4cccnc4)ccc3s1)CCNC2	< 300	< 300
COCCNCCC(=O)Nc1sc2c(c1-c1nc3cc(-c4ccc(O)nc4)ccc3s1)CCNC2	< 300	300 to 1000
COCCNCCC(=O)Nc1sc2c(c1-c1nc3cc(-c4ccc(F)nc4F)ccc3s1)CCNC2	300 to 1000	< 300
COCCNCCC(=O)Nc1sc2c(c1-c1nc3cc(F)ccc3s1)CCN[C@H]2C	–	< 300
O=C(CCNC1CC1)Nc1sc2c(c1-c1nc3ccccc3s1)CCNC2	300 to 1000	< 300
COCCNCCC(=O)Nc1sc2c(c1-c1nc3cc(OC4CCOCC4)ccc3s1)CCNC2	300 to 1000	< 300
CCN(CC)CCNCCC(=O)Nc1sc2c(c1-c1nc3ccccc3s1)CCN(C(C)C)C2	300 to 1000	1000 to 10000

SMILES	IC50 [1] [nM]	IC50 [2] [nM]
COCCNCCC(=O)Nc1sc2c(c1-c1nc3cc(-c4cccc(C#N)c4)ccc3s1)CCNC2	300 to 1000	< 300
CC(C)NCCC(=O)N(C)c1sc2c(c1-c1nc3cc(-c4cnn(C)c4)ccc3s1)CCNC2	> 10000	1000 to 10000
CCOc1ccc(-c2ccc3sc(-c4c(NC(=O)CCNCCOC)sc5c4CCNC5)nc3c2)cn1	300 to 1000	< 300
CC(C)NCCC(=O)Nc1sc2c(c1-c1nc3cc(C4=CCN(S(=O)(=O)N(C)C)CC4)ccc3s1)CCNC2	300 to 1000	< 300
COCCNCCC(=O)Nc1sc2c(c1-c1nc3ccc(-c4cnn(C)c4C)cc3s1)CCNC2	300 to 1000	< 300
COCCNCCC(=O)Nc1sc2c(c1-c1nc3cc(-c4ccccc4NS(C)(=O)=O)ccc3s1)CCNC2	1000 to 10000	< 300
COCCNCCC(=O)Nc1sc2c(c1-c1nc3cc(-c4ccc5ncnn5c4)ccc3s1)CCNC2	< 300	< 300
Cc1cc(-c2ccc3sc(-c4c(NC(=O)CCNC(C)C)sc5c4CCNC5)nc3c2)n(C)n1	< 300	300 to 1000
COCCNCCC(=O)Nc1sc2c(c1-c1nc3cc(-c4ccnc(OC)c4)ccc3s1)CCNC2	300 to 1000	< 300
COCCNCCC(=O)Nc1sc2c(c1-c1nc3ccc(-c4ccc(N5CCN(C)CC5)cc4)cc3s1)CCNC2	< 300	< 300
CC(C)N1CCc2c(sc(NC(=O)CCN(C)C)c2-c2nc3ccccc3s2)C1	300 to 1000	< 300
COCCNCCC(=O)Nc1sc2c(c1-c1nc3cc(-c4cnc(N)c(C(F)(F)F)c4)ccc3s1)CCNC2	1000 to 10000	< 300
COCCNCCC(=O)Nc1sc2c(c1-c1nc3cc(-c4ccc(C)nc4)ccc3s1)CCNC2	300 to 1000	< 300
CC(C)NCCC(=O)Nc1sc2c(c1-c1nc3cc(C4CC4)ccc3s1)CCNC2	300 to 1000	< 300
CC[C@H](C)NCCC(=O)Nc1sc2c(c1-c1nc3ccccc3s1)CC(C)NC2C (single isomer, unassigned; 620)	–	1000 to 10000
CCOc1ncccc1-c1ccc2sc(-c3c(NC(=O)CCNCCOC)sc4c3CCNC4)nc2c1	1000 to 10000	300 to 1000
CC(C)NCCC(=O)Nc1sc2c(c1-c1nc3cc(Sc4ccccc4)ccc3s1)CCNC2	> 10000	300 to 1000
CC(C)NCCC(=O)Nc1sc2c(c1-c1nc3cc(C4CCCCC4)ccc3s1)CCNC2	> 10000	300 to 1000
CNS(=O)(=O)c1cccc(-c2ccc3nc(-c4c(NC(=O)CCNCCOC)sc5c4CCNC5)sc3c2)c1	300 to 1000	< 300
CSc1cccc2sc(-c3c(NC(=O)CCNC(C)C)sc4c3CCNC4)nc12	300 to 1000	< 300
COCCNCCC(=O)Nc1sc2c(c1-c1nc3ccc(-c4ccc(C)nc4)cc3s1)CCNC2	300 to 1000	< 300
O=C(C[C@@H]1CCCN1)Nc1sc2c(c1-c1nc3ccccc3s1)CCNC2	1000 to 10000	< 300
COCCNCCC(=O)Nc1sc2c(c1-c1nc3ccccc3s1)C[C@@H](C)NC2	–	< 300
CC[C@H](C)NCCC(=O)Nc1sc2c(c1-c1nc3ccccc3s1)CC(C)NC2C (single isomer, unassigned; 621)	–	1000 to 10000
CC[C@H](C)NCCC(=O)Nc1sc2c(c1-c1nc3ccccc3s1)CC(C)NC2C (single isomer, unassigned; 624)	–	< 300
CCOc1ccc(-c2ccc3nc(-c4c(NC(=O)CCNCCOC)sc5c4CCNC5)sc3c2)cn1	1000 to 10000	–
CC(C)NCCC(=O)Nc1sc2c(c1-c1nc3cc(-c4nn[nH]n4)ccc3s1)CCNC2	< 300	–

SMILES	IC50 [1] [nM]	IC50 [2] [nM]
COCCNCCC(=O)Nc1sc2c(c1-c1nc3cc(-c4cccc(C(F)(F)F)c4)ccc3s1)CCNC2	> 10000	–
COCCNCCC(=O)Nc1sc2c(c1-c1nc3cc(-c4cccc5[nH]ncc45)ccc3s1)CCNC2	1000 to 10000	–
COCCNCCC(=O)Nc1sc2c(c1-c1nc3cc(-c4ccc(N5CCNCC5)nc4)ccc3s1)CCNC2	< 300	–
COCCNCCC(=O)Nc1sc2c(c1-c1nc3ccc(-c4cnccc4OC)cc3s1)CCNC2	> 10000	–
CC(C)NCCC(=O)Nc1sc2c(c1-c1nc3c(NC(=O)c4ccccc4)cccc3s1)CCNC2	1000 to 10000	–
CC(=O)Nc1sc2c(c1-c1nc3ccccc3s1)C[C@@H](C)N[C@H]2C (relative stereo)	–	300 to 10000
COCCNCCC(=O)Nc1sc2c(c1-c1nc3ccc(-c4ccc5cnn(C)c5c4)cc3s1)CCNC2	> 10000	–
COCCNCCC(=O)Nc1sc2c(c1-c1nc3ccc(-c4ccc5ncnn5c4)cc3s1)CCNC2	1000 to 10000	–
CC(C)NCCC(=O)Nc1sc2c(c1-c1nc3cc(C#N)ccc3s1)CCNC2	< 300	–
CCC(C)N(CCC(=O)Nc1sc2c(c1-c1nc3ccccc3s1)CCN(C(C)C)C2)C(=O)OC(C)(C)C (stereo not given)	> 10000	–
O=C(CC1COCCN1)Nc1sc2c(c1-c1nc3ccccc3s1)CCNC2 (stereo not given)	300 to 1000	–
CNS(=O)(=O)c1ccccc1-c1ccc2sc(-c3c(NC(=O)CCNCCOC)sc4c3CCNC4)nc2c1	> 10000	–
COCCNCCC(=O)Nc1sc2c(c1-c1nc3ccc(-c4cnc(OC)c(OC)c4)cc3s1)CCNC2	1000 to 10000	–
COc1cccc(-c2ccc3sc(-c4c(NC(=O)CCNC(C)C)sc5c4CCNC5)nc3c2)c1	1000 to 10000	–
COCCNCCC(=O)Nc1sc2c(c1-c1nc3cc(-c4ccccc4NC(C)=O)ccc3s1)CCNC2	> 10000	–
COCCNCCC(=O)Nc1sc2c(c1-c1nc3ccc(-c4ccc(C(=O)N5CCOCC5)cc4)cc3s1)CCNC2	300 to 1000	–
COCCNCCC(=O)Nc1sc2c(c1-c1nc3ccc(-c4ccnc(C(F)(F)F)c4)cc3s1)CCNC2	> 10000	–
CC(C)N1CCc2c(sc(NC(=O)CCNc3cccnc3)c2-c2nc3ccccc3s2)C1	1000 to 10000	–
CC(NCCC(=O)Nc1sc2c(c1-c1nc3ccccc3s1)CCN(C(C)C)C2)c1ccncc1 (stereo not given)	1000 to 10000	–
COCCNCCC(=O)Nc1sc2c(c1-c1nc3cc(-c4ccc5c(=O)[nH]ccc5c4)ccc3s1)CCNC2	> 10000	–
COCCNCCC(=O)Nc1sc2c(c1-c1nc3ccc(-c4ccc(C)c(C#N)c4)cc3s1)CCNC2	> 10000	–
COCCNCCC(=O)Nc1sc2c(c1-c1nc3ccc(-c4cccc5cccnc45)cc3s1)CCNC2	> 10000	–
COCCNCCC(=O)Nc1sc2c(c1-c1nc3ccc(-c4ccc(OC)c(OC)c4)cc3s1)CCNC2	> 10000	–
COCCNCCC(=O)Nc1sc2c(c1-c1nc3cc(-c4ccccc4)ccc3s1)CCNC2	1000 to 10000	–
COCCNCCC(=O)Nc1sc2c(c1-c1nc3ccc(-c4ccncc4Cl)cc3s1)CCNC2	> 10000	–
